Reference: ChEMBL document CHEMBL5331085 (Eur J Med Chem, 2023)
Converted amounts (≈) assume the structure as drawn. “And” between values parts separate entries of the source, which are not always exact repeats. Equal values may be shown once. The source made the active and inactive calls. The rule behind the calls is not given here.

Key:
[1] = tested on: Staphylococcus aureus; assay: Induction of drug resistance in Staphylococcus aureus ATCC 29213 at 0.1 times MIC measured after 20 passages; type: functional
[2] = tested on: Staphylococcus aureus; assay: Antimicrobial activity against methicillin-resistant Staphylococcus aureus incubated for 16 to 20 hrs by CLSI based broth dilution method; type: functional; conditions: time 16-20 hrs
[3] = tested on: Staphylococcus aureus; assay: Antimicrobial activity against Staphylococcus aureus ATCC 29213 incubated for 16 to 20 hrs by CLSI based broth dilution method; type: functional; conditions: time 16-20 hrs
[4] = tested on: Enterococcus faecium; assay: Antimicrobial activity against Enterococcus faecium ATCC 29212 incubated for 16 to 20 hrs by CLSI based broth dilution method; type: functional
[5] = tested on: Escherichia coli; assay: Antimicrobial activity against Escherichia coli ATCC 25922 incubated for 16 to 20 hrs by CLSI based broth dilution method; type: functional; conditions: time 16-20 hrs
[6] = tested on: Stenotrophomonas maltophilia; assay: Antimicrobial activity against Stenotrophomonas maltophilia ATCC 17808 incubated for 16 to 20 hrs by CLSI based broth dilution method; type: functional; conditions: time 16-20 hrs
[7] = (§1) Hemolytic activity in sheep erythrocytes incubated for 1 hr by absorbance based analysis; type: toxicity, cell-based, Ovis aries, Erythrocyte; conditions: sheep erythrocytes
[8] = tested on: Erythrocyte; assay: as §1; type: toxicity, cell-based, Ovis aries; conditions: erythrocyte, 1 h
[9] = tested on: Staphylococcus aureus; assay: Bactericidal activity against Staphylococcus aureus ATCC 29213 assessed as fold increase in MIC incubated for 16 to 20 hrs in presence of 50% plasma by broth dilution method relative to control; type: functional; conditions: time 16-20 hrs
[10] = tested on: Staphylococcus aureus; assay: Bactericidal activity against Staphylococcus aureus ATCC 29213 assessed as fold increase in MIC incubated for 16 to 20 hrs in presence of 50% serum by broth dilution method relative to control; type: functional; conditions: time 16-20 hrs
[11] = tested on: Staphylococcus aureus; assay: Induction of ROS accumulation in Staphylococcus aureus ATCC 29213 at 1 ug/ml incubated for 30 mins by DCF-DA staining based fluorescence analysis; type: functional, organism-based; conditions: dose 1.0 µg/ml
[12] = tested on: Staphylococcus aureus; assay: Induction of ROS accumulation in Staphylococcus aureus ATCC 29213 at 1 ug/ml incubated for 30 mins in presence of N-acetyl-L-cysteine by DCF-DA staining based fluorescence analysis; type: functional, organism-based; conditions: dose 1.0 µg/ml
[13] = tested on: Cell membrane; assay: Induction of membrane depolarization in Staphylococcus aureus ATCC 29213 assessed as increase in fluorescence intensity at 16 ug/ml treated for 6 mins prior to compound addition and further measured for 20 mins by DiSC3-5 dye based fluorescence analysis; conditions: dose 16.0 µg/ml
[14] = Cytotoxicity against HUVEC cells assessed as inhibition of cell growth incubated for 72 hrs by CCK-8 assay; type: toxicity, cell-based; conditions: human
[15] = tested on: Staphylococcus aureus; assay: Induction of ROS accumulation in Staphylococcus aureus ATCC 29213 at 0.25 to 0.5 ug/ml incubated for 30 mins by DCF-DA staining based fluorescence analysis; type: functional, organism-based; conditions: dose 0.25-0.5 µg/ml
[16] = Cytotoxicity against human WPMY-1 cells assessed as inhibition of cell growth incubated for 72 hrs by CCK-8 assay; type: toxicity, cell-based
[17] = Cytotoxicity against human BGC cells assessed as inhibition of cell growth incubated for 72 hrs by CCK-8 assay; type: toxicity, cell-based
[18] = Induction of drug resistance in Staphylococcus aureus ATCC 29213 assessed as test compound MIC at sub-MIC measured after 20 days (reference value: 1 ug/ml); type: functional; conditions: ATCC 29213, 480 h, time 20 day
[19] = tested on: Staphylococcus aureus; assay: Antimicrobial activity against methicillin-resistant Staphylococcus aureus infected in Kunming female mouse assessed as reduction in bacterial load in skin administered at labeled position and measured after 24 hrs; type: functional, organism-based; conditions: dose 5-10 mg/kg/day
[20] = Staphylococcus aureus, ATCC 29213, read-out: MIC
[21] = Enterococcus faecium, ATCC 29212, time 16-20 hrs, read-out: MIC
[22] = Escherichia coli, ATCC 25922, read-out: MIC
[23] = Stenotrophomonas maltophilia, ATCC 17808, read-out: MIC

Row | Molecule | MIC [3, 20] [µg/mL] | MIC [4, 21] [µg/mL] | MIC [5, 22] [µg/mL] | MIC [6, 23] [µg/mL] | HC50 at 1 h [7] [µg/mL] | further results
1 | O=C(O)c1cn(C2CC2)c2cc(N3CCNCC3)c(F)cc2c1=O | – | – | – | – | – | Activity [1]: Active
2 | GENTAMICIN | – | – | – | – | – | MIC90 [2]: 2 µg/mL
3 | CCCCCCCC[N+](C)(C)CCCOc1cccc(-c2cccc(OCCC[N+](C)(C)CCCCCCCC)c2)c1.[Br-].[Br-] | 2 | 0.5 | 1 | 2 | 145 | –
4 | CCCCCCCCCC[N+](C)(C)CCCOc1ccc2ccccc2c1-c1c(OCCC[N+](C)(C)CCCCCCCCCC)ccc2ccccc12.[Br-].[Br-] | 16 | 16 | 16 | 16 | 228 | MIC [3]: 16 µg/mL; MIC ([4]; time 16-20 hrs): 16 µg/mL; MIC [5]: 16 µg/mL; MIC [6]: 16 µg/mL; HC50 [8]: 371 µg/mL
5 | CC[C@H](C)[C@H](NC(=O)CN)C(=O)NCC(=O)N[C@@H](C)C(=O)N[C@H](C(=O)N[C@@H](CC(C)C)C(=O)N[C@@H](CCCCN)C(=O)N[C@H](C(=O)N[C@@H](CC(C)C)C(=O)N[C@H](C(=O)N[C@H](C(=O)NCC(=O)N[C@@H](CC(C)C)C(=O)N1CCC[C@H]1C(=O)N[C@@H](C)C(=O)N[C@@H](CC(C)C)C(=O)N[C@H](C(=O)N[C@@H](CO)C(=O)N[C@@H](Cc1c[nH]c2ccccc12)C(=O)N[C@H](C(=O)N[C@@H](CCCCN)C(=O)N[C@@H](CCCNC(=N)N)C(=O)N[C@@H](CCCCN)C(=O)N[C@@H](CCCNC(=N)N)C(=O)N[C@@H](CCC(N)=O)C(=O)N[C@@H](CCC(N)=O)C(N)=O)[C@@H](C)CC)[C@@H](C)CC)[C@@H](C)O)[C@@H](C)O)C(C)C)C(C)C [MELITTIN] | – | 2 (≈ 0.703 µM) | – | 8 (≈ 2.81 µM) | – | fold change (FC) [9]: >32; fold change (FC) [10]: >32; Activity [11]: Active; Activity [12]: inactive; Activity [13]: Active; IC50 at 72 h [14]: 5.8 µg/mL (≈ 2.04 µM); Activity [15]: inactive
6 | CO[C@H]1/C=C/O[C@@]2(C)Oc3c(C)c(O)c4c(O)c(c(/C=N/N5CCN(C)CC5)c(O)c4c3C2=O)NC(=O)/C(C)=C\C=C\[C@H](C)[C@H](O)[C@@H](C)[C@@H](O)[C@@H](C)[C@H](OC(C)=O)[C@@H]1C [RIFAMPIN] | – | – | – | – | – | MIC90 [2]: 128 µg/mL (≈ 156 µM)
7 | CCCCCCCC[N+](C)(C)CCCOc1ccccc1-c1ccccc1OCCC[N+](C)(C)CCCCCCCC.[Br-].[Br-] | 1 | 0.5 | 1 | 2 | 109 | –
8 | CCCCCC[N+](C)(C)CCCOc1ccccc1-c1ccccc1OCCC[N+](C)(C)CCCCCC.[Br-].[Br-] | 2 | 16 | 128 | 128 | > 1280 | –
9 | CCCCCCCCCCCC[N+](C)(C)CCCOc1ccccc1-c1ccccc1OCCC[N+](C)(C)CCCCCCCCCCCC.[Br-].[Br-] | 16 | 4 | 32 | 32 | 12 | –
10 | CCCCCCCCCC[N+](C)(C)CCCOc1ccc(-c2ccc(OCCC[N+](C)(C)CCCCCCCCCC)cc2)cc1.[Br-].[Br-] | 1 | 0.5 | 2 | 2 | 18 | –
11 | CCCCCCCC[N+](C)(C)CCCOc1ccc(-c2ccc(OCCC[N+](C)(C)CCCCCCCC)cc2)cc1.[Br-].[Br-] | 1 | 0.5 | 1 | 2 | 83 | –
12 | C=C[C@]1(C)C[C@@H](OC(=O)CS[C@@H]2C[C@H]3CC[C@@H](C2)N3C)[C@]2(C)[C@H](C)CC[C@]3(CCC(=O)[C@H]32)[C@@H](C)[C@@H]1O [RETAPAMULIN] | – | – | – | – | – | IC50 at 72 h [16]: 13.9 µg/mL (≈ 26.8 µM); IC50 at 72 h [14]: 25.5 µg/mL (≈ 49.2 µM); IC50 at 72 h [17]: 16 µg/mL (≈ 30.9 µM)
13 | CCn1cc(C(=O)O)c(=O)c2cc(F)c(N3CCNCC3)cc21 [NORFLOXACIN] | – | – | – | – | – | MIC [18]: 64 µg/mL
14 | CN[C@H](CC(C)C)C(=O)N[C@H]1C(=O)N[C@@H](CC(N)=O)C(=O)N[C@H]2C(=O)N[C@H]3C(=O)N[C@H](C(=O)N[C@H](C(=O)O)c4cc(O)cc(O)c4-c4cc3ccc4O)[C@H](O)c3ccc(c(Cl)c3)Oc3cc2cc(c3O[C@@H]2O[C@H](CO)[C@@H](O)[C@H](O)[C@H]2O[C@H]2C[C@](C)(N)[C@H](O)[C@H](C)O2)Oc2ccc(cc2Cl)[C@H]1O [VANCOMYCIN] | – | – | – | – | > 1280 | MIC90 [2]: 2 µg/mL (≈ 1.38 µM); Activity [19]: Dose-Dependent Effect
15 | CCCCCC[N+](C)(C)CCCOc1ccc2ccccc2c1-c1c(OCCC[N+](C)(C)CCCCCC)ccc2ccccc12.[Br-].[Br-] | 8 | 4 | 8 | 8 | – | MIC [3]: 8 µg/mL; MIC ([4]; time 16-20 hrs): 8 µg/mL; MIC [5]: 8 µg/mL; MIC [6]: 8 µg/mL; HC50 [8]: 405 µg/mL and 868 µg/mL
